Laboratory results reported in patent publication US20140073637A1, “AMINO-SUBSTITUTED-ALKYLOXY-BENZO[E]PYRIDO[4,3-B]INDOLE DERIVATIVES AS NEW POTENT KINASE INHIBITORS” (INSTITUT CURIE, priority 2011, published 2014).

Legend:
Format in all cases: cell-based
H322 = assay: Cell viability test (CellTiter 96 AQueous One Solution); conditions: NCI-H322; H322 (Lung); 72 h of treatment; read-out: IC50 (cell line viability)
Description: (§1) H358, H322 (lung cancer cells), U373 (glioblastomes) and HeLa ([…]) were grown in DMEM (1.5 g/L glucose) whereas HL60 (human myeloid cell line) cells were in RPMI 1640. U2OS (a human osteosarcoma cell line) cells were cultured in McCoy's Medium 5 A and liver cells (SK Hep 1) in DMEM (4 g/L glucose, (Gibco-Invitrogen). Media (Gibco-Invitrogen), were supplemented with 10% heat-inactivated foetal bovine serum (Gibco-Invitrogen), L-glutamine (2 mM), penicillin (100 UI/ml) and streptomycin (100 μg/ml).
(§2) Cell proliferation assays were conducted in 96 well culture plates. Assays were run in triplicate. Cell viability was estimated upon 72 h of treatment with varying concentrations of compound by addition of CellTiter 96Queous one Solution Reagent (Promega) directly to culture wells under conditions defined by the manufacturer.

SkHep1 = assay: as above; conditions: Homo sapiens, SK-HEP1; SkHep1 (Liver cells); 72 h of treatment; read-out: IC50 (cell line viability)
Description: as §1, §2

Aurora B = Aurora B (Homo sapiens, UniProt Q96GD4); assay: Aurora B inhibition in cells: Histone H3 Ser10 phosphorylation by western blotting and immunofluorescence; design: endogenous in cells; host or cells: U2OS (human osteosarcoma); HeLa also used for the maleate salts; key to Aurora B inhibition: +++: very efficient inhibition; −: no inhibition; conditions: for Aurora B inhibition in cellulo (Histone H3 phosphorylation, in words): U2OS mitotic extracts, 1 μM overnight, western blotting (FIG. 3); for Aurora B inhibition: cells, Histone H3 Ser10 phosphorylation, western blotting and immunofluorescence, compounds 1 μM
Description: Actin is used as control of quantity. Cells were incubated overnight in the presence of either C1, or C2 or CH21 or C14 or DMSO(C: control). All compounds were tested at 1 μM. Proteins were detected by western blotting.
Cells were incubated with the different molecules and Aurora B inhibition is estimated by western blotting (WB) and immuno fluorescent experiments. Histone H3 phosphorylated on Ser10 is used as a marker of Aurora B kinase activity and actin as an internal control. Each WB signal is compared to the control in the absence of compound. The efficiency estimated by WB is indicated by +++: very efficient inhibition to −: no inhibition. Immunofluorescent labelling of a mitotic cell by Histone H3 illustrates Aurora B kinase activity. However immunofluorescence is less sensitive than WB. Active molecules are underlined by a square and the intensity of the line indicates the efficiency of inhibition.
FIG. 10A: Immunofluorescence with phospho-Ser10-Histone H3 antibodies. Either the percentage of positive phospho-Ser10-Histone H3 is indicated or a representative mitosis shown. […] Immunofluorescent assays were realized with a specific phospho-antibody and mitotic U2OS cells are recognized by their DNA content stained with Hoechst. On the right, a representative cell or the percentage of H3-S10-P labelled mitosis.
(§3) FIG. 10B: Immunoblotting analysis of histone H3 phosphorylation. U2OS cells were incubated overnight with Nocodazole (50 nM) in the presence of either DMSO (Co) or Compounds (1 μM). Cells were then collected and lyzed. Identical amounts of the lyzed cell samples were run on 18% acrylamide gel containing SDS.
as §3, with “FIGS. 11B and 11C:” for “FIG. 10B:”, “U2OS and HeLa” for “U2OS”
Cells were incubated with the different molecules and Aurora B inhibition is estimated by western blotting and immunofluorescent experiments. Histone H3 phosphorylated on Ser10 is used as a marker of Aurora B kinase activity and actin as an internal control. Results are represented in FIGS. 4 and 10 and Table 3.
Cells were treated by compounds, harvested and lyzed in 9M urea then supplemented with Laemmli sample buffer. Cell extracts were subjected to SDS-PAGE and transferred to nitrocellulose filter (GE Healthcare). After blocking with 5% non-fat milk in PBS for at least 1 hour, the membranes were incubated with the primary antibodies. The following antibodies were used: phospho-Histone H3 Ser10 (1:2000, Upstate Biotechnology), anti LAST1 (Cell signalling), anti Aurora B (epitomics) and anti alpha-tubulin (Sigma) Anti-rabbit horseradish peroxidase (1:5000, GE Healthcare) was used as secondary antibodies. Bands were visualized by ECL technique (Amersham Bioscience).
Cells were seeded on glass coverslips and treated by compounds (1 μM) overnight. After treatment, cells were fixed in 4% formaldhehyde at 37° C. for 15 minutes, then permeabilized for 5 minutes with Triton X-100 in PBS.

HeLa cells = assay: Cell cycle analysis by FACS (propidium iodide); conditions: 0.5 μM
Description: The influence of the C14 treatment versus C1 and control (Te) were analysed by FACS following propidium iodine labelling. C1 and C14 were added at the concentration of 0.5 μM and the treatment lasted either 30 h or 48 h. On the top histogram, arrows allowed the visualization of the different phases of the cell cycle and the corresponding data are reported in Table 4.
HeLa cells were incubated in the presence of either C1 (0.5 μM) or C14 (0.5 μM) or DMSO (Te) and the reparation of the cells in the different phases is analyzed by FACS.
Cells were incubated in either the presence or the absence of compounds. For determination of cell cycle profile, cells were fixed by ice-cold 70% ethanol for 1 h and then, incubated with propidium iodide solution (50 μg/ml PI in the presence of 0.2 mg/ml RNAse) for 15 minutes at 37° C. DNA content was measured using the FACS flow cytometer equipped with CellQuest Pro software (Becton Dickinson, San Diego, Calif.).

[1] = system: Hek cells stably expressing tubulin-GFP; assay: Time-lapse of Hek cells expressing tubulin-GFP; conditions: 0.5 μM; continuous imaging
Description: Mitotic Hek cells stably expressing tubulin-GFP were continuously imaged and representative of either control or treated cells (C14 and C1, 0.5 μM) are shown. Elapse times are indicated on each photo.
Mitotic Hek cells stably expressing tubulin-GFP were continuously imaged and representative of either control or treated cells (C14 and C1, 0.5 μM) are shown (FIG. 8). Elapse times are indicated on each photo. In the control as well as in the presence of C1 the mitotic spindle is organized (24 min and To respectively) whereas in the presence of C14, the two poles are only connected by few microtubules (97 min and 130 min). Finally, in the presence of C14, cells escape from mitosis and cytoplasmic microtubules are observed (159 min and 212 min). Note that a duplication of the spindle occurs upon C1 treatment (106 min)

Aurora B, sequence (Q96GD4 whole entry): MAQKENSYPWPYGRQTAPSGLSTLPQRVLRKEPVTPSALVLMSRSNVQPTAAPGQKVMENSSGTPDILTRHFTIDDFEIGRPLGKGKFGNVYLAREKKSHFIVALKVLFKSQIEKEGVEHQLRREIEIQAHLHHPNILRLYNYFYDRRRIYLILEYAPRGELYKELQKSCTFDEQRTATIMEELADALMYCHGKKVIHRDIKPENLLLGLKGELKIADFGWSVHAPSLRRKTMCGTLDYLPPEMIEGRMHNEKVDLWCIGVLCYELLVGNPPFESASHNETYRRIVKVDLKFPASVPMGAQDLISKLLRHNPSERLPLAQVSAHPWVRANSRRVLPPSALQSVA

Row | SMILES | IC50 (H322) [nM] | IC50 (SkHep1) [nM] | Aurora B inhibition in cellulo (Histone H3 phosphorylation, in words) (Aurora B) | Aurora B inhibition (Aurora B) | <2N in % (HeLa cells; 30 h) [%] | >4N in % (HeLa cells; 30 h) [%] | G0/G1 in % (HeLa cells; 30 h) [%] | G2/M in % (HeLa cells; 30 h) [%] | S in % (HeLa cells; 30 h) [%] | <2N in % (HeLa cells; 48 h) [%] | >4N in % (HeLa cells; 48 h) [%] | G0/G1 in % (HeLa cells; 48 h) [%] | G2/M in % (HeLa cells; 48 h) [%] | S in % (HeLa cells; 48 h) [%] | cells still cycling (HeLa cells; after 48 h of treatment) [%] | effect on mitotic spindle (in words) [1] | cells in G0/G1 and S (HeLa cells; 30 h) [%] | cells in G0/G1 and S (HeLa cells; 48 h) [%]
1 | Cc1cncc2c1[nH]c1ccc3cc(OCCN(C)C)ccc3c12 [CH21, 3-(2-N,N-dimethylaminoethyloxy)-8-methyl-7H-benzo[e]pyrido(4,3-b)indole] | 800 | 450 | no effect | − |  |  |  |  |  |  |  |  |  |  |  |  |  | 
2 | CCc1c[nH]c(=O)c2c1[nH]c1ccc3cc(OC)ccc3c12 [Compound C1, reference compound] |  |  | inhibit efficiently | +++ | 6 | 26 | 24 | 28 | 13 | 6 | 41 | 18 | 22 | 8 | 48 | induced its duplication |  | 
3 | Cc1c[nH]c(=O)c2c1[nH]c1ccc3cc(OCCN(C)C)ccc3c12 [Compound C14, 3-(2-N,N-Dimethylaminoethoxy)-8-methyl-7H,10H-benzo[e]pyrido(4,3-b)indol-11-one] | > 4000 | 2000 | inhibit efficiently | +++ | 19 | 56 | 3 | 18 | 4 | 22 | 56 | 2 | 4 | 2 |  | prevented mitotic spindle organization | 7 | 5
